Converted amounts (≈) assume the structure as drawn. Where two headings read alike, the source gives them in different places. Starred links: 1 amine or outer side, 2 acyl side, 3 side chain; linkers in the order of their positions; H or OH if unused. Positions of bridges follow the written chain, without caps; N, C: chain ends. Residues, ends and D or L forms follow the SMILES beside them. *: point of attachment. C20 diacid = O=C(O)CCCCCCCCCCCCCCCCCCC(=O)*; γGlu = O=C(O)[C@H](CCC(=O)[*:2])N[*:1]
Legend:
[1] = biological target: T1, human amylin receptor (amylin 3(a) receptor: human calcitonin receptor + RAMP-3) (Homo sapiens, UniProt O60896+P30988); assay: Assay (II)a functional CRE-luciferase assay, human amylin receptor; assay type: cell-based; settings: Table 2; BHK amylin 3(a)-receptor/CRE-luc cells
T1 construct: expressed in transfected cells; host or cells: BHK570
T1 sequence (P30988 25-474): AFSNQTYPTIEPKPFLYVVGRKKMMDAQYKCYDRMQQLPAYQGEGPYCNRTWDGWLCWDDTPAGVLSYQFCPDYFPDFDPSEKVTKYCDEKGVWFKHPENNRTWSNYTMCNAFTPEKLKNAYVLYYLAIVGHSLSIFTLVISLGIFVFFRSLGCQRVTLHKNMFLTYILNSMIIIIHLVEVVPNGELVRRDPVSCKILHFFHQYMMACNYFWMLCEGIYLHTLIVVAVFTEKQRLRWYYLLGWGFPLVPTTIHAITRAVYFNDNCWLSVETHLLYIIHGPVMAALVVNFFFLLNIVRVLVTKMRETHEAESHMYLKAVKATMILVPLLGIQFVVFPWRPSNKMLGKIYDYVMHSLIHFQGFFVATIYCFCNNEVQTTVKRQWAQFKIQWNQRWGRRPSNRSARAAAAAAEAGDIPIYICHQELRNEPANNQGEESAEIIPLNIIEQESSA
T1 sequence (O60896 24-148 partner): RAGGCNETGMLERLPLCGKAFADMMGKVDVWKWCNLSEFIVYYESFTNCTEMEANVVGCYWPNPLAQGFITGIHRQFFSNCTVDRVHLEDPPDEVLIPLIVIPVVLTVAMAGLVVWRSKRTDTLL

[2] = biological target: T2, human calcitonin receptor (Homo sapiens, UniProt P30988); assay: Assay (II)a functional CRE-luciferase assay, human calcitonin receptor; assay type: cell-based; settings: Table 7; human calcitonin (CTa) receptor
T2 construct: expressed in transfected cells; host or cells: BHK570
T2 sequence (P30988 25-474): T1 sequence (P30988 25-474)

[3] = Assay (IV) determination of solubility; assay type: physicochemical
Summary of the method: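 Stock ~500 nmol/ml in water; 1:1 with 100 mM buffer, pH 3.0–8.0 (glycylglycine ≤5.0, bistrispropane ≥6.0); 18 h RT; spin; HPLC quantitation of soluble polypeptide.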

[4] = Assay (III) ThT fibrillation assay for physical stability; assay type: physicochemical; settings: ThT fibrillation assay
Summary of the method: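 Freshly prepared formulations, pH-adjusted, with 1 μM ThT; four or eight replicates incubated at 37 °C under 960 rpm orbital shaking. Fluorescence (ex 444/em 485 nm) read every 20 min; […]. Peptide concentration measured by RP-HPLC before and after the run.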

[5] = bistrispropane buffer, pH 6, pH 6.0, read-out: Solubility pH 6.0
[6] = bistrispropane buffer, pH 6.5, pH 6.5, read-out: Solubility pH 6.5
[7] = bistrispropane buffer, pH 7, pH 7.0, 18 hours at room temperature, Table 3, read-out: Solubility pH 7.0
[8] = bistrispropane buffer, pH 7, pH 7.0, read-out: Solubility pH 7.0
[9] = bistrispropane buffer, pH 7.5, pH 7.5, read-out: Solubility pH 7.5
[10] = bistrispropane buffer, pH 8, pH 8.0, read-out: Solubility pH 8.0
[11] = glycylglycine buffer, pH 3, pH 3.0, read-out: Solubility pH 3.0
[12] = glycylglycine buffer, pH 4, pH 4.0, 18 hours at room temperature, Table 2, read-out: Solubility pH 4.0
[13] = glycylglycine buffer, pH 4, pH 4.0, read-out: Solubility pH 4.0
[14] = glycylglycine buffer, pH 5, pH 5.0, read-out: Solubility pH 5.0

EC50 [1] [nM]	EC50 [2] [nM]	solubility at 18 h [3, 5] [µM]	solubility at 18 h [3, 6] [µM]	solubility at 18 h [3, 7] [µM]	solubility at 18 h [3, 8] [µM]	solubility at 18 h [3, 9] [µM]	solubility at 18 h [3, 10] [µM]	solubility at 18 h [3, 11] [µM]	solubility at 18 h [3, 12] [µM]	solubility at 18 h [3, 13] [µM]	solubility at 18 h [3, 14] [µM]	ThT pH 4.0 lag time (h) [4] [h]	ThT pH 4.0 lag time [4] [h]	SMILES
0.136	0.378	> 200	> 200	> 200	> 200	> 200	> 200	> 200	> 200	> 200	> 200	8.7		CC[C@H](C)[C@H](NC(=O)[C@@H]1CCCN1C(=O)CNC(=O)[C@H](Cc1ccccc1)NC(=O)[C@H](CC(N)=O)NC(=O)[C@H](CC(N)=O)NC(=O)[C@H](CO)NC(=O)[C@H](CO)NC(=O)[C@H](Cc1c[nH]cn1)NC(=O)[C@H](Cc1c[nH]cn1)NC(=O)[C@H](CC(C)C)NC(=O)[C@H](Cc1ccccc1)NC(=O)[C@H](CCC(=O)O)NC(=O)[C@H](C)NC(=O)[C@H](CC(C)C)NC(=O)[C@H](CCCNC(=N)N)NC(=O)[C@H](CCC(N)=O)NC(=O)[C@@H](NC(=O)[C@H](C)NC(=O)[C@@H]1CSSC[C@H](NC(=O)[C@H](CCC(=O)O)NC(=O)[C@H](CCCNC(=N)N)NC(=O)[C@H](CCC(=O)O)NC(=O)CC[C@H](NC(=O)CCCCCCCCCCCCCCCCCCC(=O)O)C(=O)O)C(=O)N[C@@H](CC(N)=O)C(=O)N[C@@H]([C@@H](C)O)C(=O)N[C@@H](C)C(=O)N[C@@H]([C@@H](C)O)C(=O)N1)[C@@H](C)O)C(=O)N[C@@H](CC(C)C)C(=O)N1CCC[C@H]1C(=O)N1CCC[C@H]1C(=O)N[C@H](C(=O)N[C@@H](CC(N)=O)C(=O)N[C@H](C(=O)NCC(=O)N[C@@H](CO)C(=O)N[C@@H](CC(N)=O)C(=O)N[C@H](C(=O)N1CCC[C@H]1C(N)=O)[C@@H](C)O)C(C)C)[C@@H](C)O [Example 123, N-alpha-[(S)-4-Carboxy-4-(19-carboxynonadecanoylamino)butyryl]-Glu-Arg-[Glu1,Glu14,His17,Pro37]-pramlintide] ({C20 diacid-γGlu}-ERECNTATCATQRLAEFLHHSSNNFGPILPPTNVGSNTP-NH2; disulfide 4-9 (inferred))
0.558	0.632	1 (≈ 4.73 µg/mL)	2 (≈ 9.45 µg/mL)		75 (≈ 355 µg/mL)	> 200	> 200	> 200	> 200	> 200	> 200	2		CC[C@H](C)[C@H](NC(=O)[C@@H]1CCCN1C(=O)CNC(=O)[C@H](Cc1ccccc1)NC(=O)[C@H](CC(N)=O)NC(=O)[C@H](CO)NC(=O)[C@H](CO)NC(=O)[C@H](CO)NC(=O)[C@H](Cc1c[nH]cn1)NC(=O)[C@H](Cc1c[nH]cn1)NC(=O)[C@H](CC(C)C)NC(=O)[C@H](Cc1ccccc1)NC(=O)[C@H](CCC(=O)O)NC(=O)[C@H](C)NC(=O)[C@H](CC(C)C)NC(=O)[C@H](CCCNC(=N)N)NC(=O)[C@H](CCC(N)=O)NC(=O)[C@@H](NC(=O)[C@H](C)NC(=O)[C@@H]1CSSC[C@H](NC(=O)[C@H](Cc2c[nH]cn2)NC(=O)[C@H](Cc2c[nH]cn2)NC(=O)[C@H](Cc2c[nH]cn2)NC(=O)CC[C@H](NC(=O)CCCCCCCCCCCCCCCCCCC(=O)O)C(=O)O)C(=O)N[C@@H](CC(N)=O)C(=O)N[C@@H]([C@@H](C)O)C(=O)N[C@@H](C)C(=O)N[C@@H]([C@@H](C)O)C(=O)N1)[C@@H](C)O)C(=O)N[C@@H](CC(C)C)C(=O)N1CCC[C@H]1C(=O)N1CCC[C@H]1C(=O)N[C@H](C(=O)N[C@@H](CC(N)=O)C(=O)N[C@H](C(=O)NCC(=O)N[C@@H](CO)C(=O)N[C@@H](CCC(=O)O)C(=O)N[C@H](C(=O)N[C@@H](Cc1ccc(O)cc1)C(N)=O)[C@@H](C)O)C(C)C)[C@@H](C)O [Example 63, N-alpha-[(S)-4-Carboxy-4-(19-carboxynonadecanoylamino)butyryl]-His-His-[His1,Glu14,His17,Ser21,Glu35]-pramlintide] ({C20 diacid-γGlu}-HHHCNTATCATQRLAEFLHHSSSNFGPILPPTNVGSETY-NH2; disulfide 4-9 (inferred); C-terminus assumed)
0.0955	0.0705	> 200	> 200	> 200	> 200	> 200	> 200	> 200	> 200	> 200	> 200	24		CC[C@H](C)[C@H](NC(=O)[C@@H]1CCCN1C(=O)CNC(=O)[C@H](Cc1ccccc1)NC(=O)[C@H](CC(N)=O)NC(=O)[C@H](CC(N)=O)NC(=O)[C@H](CO)NC(=O)[C@H](CO)NC(=O)[C@H](Cc1c[nH]cn1)NC(=O)[C@H](Cc1c[nH]cn1)NC(=O)[C@H](CC(C)C)NC(=O)[C@H](Cc1ccccc1)NC(=O)[C@H](CCC(=O)O)NC(=O)[C@H](C)NC(=O)[C@H](CC(C)C)NC(=O)[C@H](CCCNC(=N)N)NC(=O)[C@H](CCC(N)=O)NC(=O)[C@@H](NC(=O)[C@H](C)NC(=O)[C@@H]1CSSC[C@H](NC(=O)[C@H](CCCCN)NC(=O)CNC(=O)CC[C@H](NC(=O)CCCCCCCCCCCCCCCCCCC(=O)O)C(=O)O)C(=O)N[C@@H](CC(N)=O)C(=O)N[C@@H]([C@@H](C)O)C(=O)N[C@@H](C)C(=O)N[C@@H]([C@@H](C)O)C(=O)N1)[C@@H](C)O)C(=O)N[C@@H](CC(C)C)C(=O)N1CCC[C@H]1C(=O)N1CCC[C@H]1C(=O)N[C@H](C(=O)N[C@@H](CC(N)=O)C(=O)N[C@H](C(=O)NCC(=O)N[C@@H](CO)C(=O)N[C@@H](Cc1c[nH]cn1)C(=O)N[C@H](C(=O)N[C@@H](Cc1ccc(O)cc1)C(N)=O)[C@@H](C)O)C(C)C)[C@@H](C)O [Example 81, N-alpha-[(S)-4-Carboxy-4-(19-carboxynonadecanoylamino)butyryl]-Gly-[Glu14,His17,His35]-pramlintide] ({C20 diacid-γGlu}-GKCNTATCATQRLAEFLHHSSNNFGPILPPTNVGSHTY-NH2; disulfide 3-8 (inferred); C-terminus assumed)
0.0685	0.0965	> 200	> 200	122 (≈ 549 µg/mL)	122 (≈ 549 µg/mL)	92 (≈ 414 µg/mL)	79 (≈ 355 µg/mL)	> 200	> 200	> 200	> 200	>45	>45	CC[C@H](C)[C@H](NC(=O)[C@@H]1CCCN1C(=O)CNC(=O)[C@H](Cc1ccccc1)NC(=O)[C@H](CC(N)=O)NC(=O)[C@H](CC(N)=O)NC(=O)[C@H](CO)NC(=O)[C@H](CO)NC(=O)[C@H](CCCNC(=N)N)NC(=O)[C@H](Cc1c[nH]cn1)NC(=O)[C@H](CC(C)C)NC(=O)[C@H](Cc1ccccc1)NC(=O)[C@H](CCC(=O)O)NC(=O)[C@H](C)NC(=O)[C@H](CC(C)C)NC(=O)[C@H](CCCNC(=N)N)NC(=O)[C@H](CCC(N)=O)NC(=O)[C@@H](NC(=O)[C@H](C)NC(=O)[C@@H]1CSSC[C@H](NC(=O)[C@H](CCCCN)NC(=O)CC[C@H](NC(=O)CCCCCCCCCCCCCCCCCCC(=O)O)C(=O)O)C(=O)N[C@@H](CC(N)=O)C(=O)N[C@@H]([C@@H](C)O)C(=O)N[C@@H](C)C(=O)N[C@@H]([C@@H](C)O)C(=O)N1)[C@@H](C)O)C(=O)N[C@@H](CC(C)C)C(=O)N1CCC[C@H]1C(=O)N1CCC[C@H]1C(=O)N[C@H](C(=O)N[C@@H](CC(N)=O)C(=O)N[C@H](C(=O)NCC(=O)N[C@@H](CO)C(=O)N[C@@H](Cc1c[nH]cn1)C(=O)N[C@H](C(=O)N[C@@H](Cc1ccc(O)cc1)C(N)=O)[C@@H](C)O)C(C)C)[C@@H](C)O [Example 78, N-alpha-[(S)-4-Carboxy-4-(19-carboxynonadecanoylamino)butyryl]-[Glu14,His17,Arg18,His35]-pramlintide] ({C20 diacid-γGlu}-KCNTATCATQRLAEFLHRSSNNFGPILPPTNVGSHTY-NH2; disulfide 2-7 (inferred); C-terminus assumed)

From patent US8722849B2, “Polypeptides” (Novo Nordisk A/S, priority 2011, dated 2014)
